Source: patent publication EP2832344A1, “COMPOSITION, AND EXTERNAL PREPARATION FOR THE SKIN OR FUNCTIONAL FOOD EACH CONTAINING SAID COMPOSITION” (FUJI-FILM Corporation, priority 2012, dated 2013)

Tests used:
[1] = Storage stability of hydroxystilbenes (residual amount by HPLC); format: physicochemical; details: for remaining at 1032 h: pH 8, left 43 days at room temperature, sample with PEG-60 hydrogenated castor oil in citric acid buffer solution, HPLC
Experimental: Various hydroxystilbenes shown in the following Table 1 were dissolved in ethanol, thereby preparing a 1% solution. The solution was stirred together with PEG-60 hydrogenated castor oil which was in an amount 10 times the amount of the solution with respect to 1 part of the ethanol solution. Thereafter, the resultant was diluted by 100-fold with a citric acid buffer solution, thereby preparing a sample.
pH of the sample prepared as above was regulated to be 8, and the sample was left as is for a month and a half (43 days) at room temperature. Thereafter, by means of HPLC, a residual amount of various hydroxystilbenes in each sample was determined. Analysis conditions for HPLC are as follows.
• Column: C18 5 µm, 4.6 mm x 250 mm • Flow rate: 1 ml/min • Column temperature: 40°C • Detection wavelength: 310 nm • Developing solution: acetonitrile/water = 20/80 (volume ratio, containing 0.1% by volume of acetic acid and 0.1% by volume of triethanolamine) [Table 1]

[2] = tested on: NF-κB; test: NF-κB intranuclear transition in UVB-irradiated dermal fibroblasts (Western blotting); format: cell-based; details: Homo sapiens, light or radiation study; HDF cells, UVB (20 mJ) irradiated, 6 hours; pterostilbene 5 ppm, no carotenoid; not irradiated = 100 %, irradiated without additive = 684%; read-out: Ratio of amount of NF-κB moving into nucleus
From the text: NFκB is considered to be involved in skin aging at an early stage. Therefore, an NFκB intranuclear transition inhibition rate of carotenoid and pterostilbene was examined.
Normal human dermal fibroblasts (HDF cells, KURABO INDUSTRIES LTD.) were subcultured three times according to a common method, in a GlutaMax medium (D-MEM, Gibco) supplemented with 10% fetal bovine serum (FBS, Gibco). The subcultured HDF cells were caused to adhere to a container at 1,000,000 cells/25 cm^2 and put in a serum starvation state for a day. Thereafter, the HDF cells were washed with phosphate buffered saline (PBS).
The cells were irradiated with UVB (20 mJ) emitted from right above the cells, and then the medium was replaced with a medium obtained by adding 0.1% FBS to D-MEM containing the carotenoid and the pterostilbene shown in Tables 6 and 7.
6 hours after the replacement of the medium, nuclei were extracted using NucBuster (Novagen), and the amount of NF-κB moved into the nuclei was determined by Western blotting (WB) (primary antibody: NF-κB p65 Rabbit Monoclonal Antibody (Cat. #1546-1), EPITOMICS).
Moreover, in Experiment 1 and Experiment 7, for comparison, the cells were not irradiated with UVB.

remaining at 1032 h [1] [%] | Residual amount (%) ([1]; citric acid buffer, 1032 h, pH 8) | Compound | activity at 5 ppm [2] [%]
54 | – | Oc1ccc(C=Cc2cc(O)cc(O)c2)cc1 [Resveratrol] | –
– | 73 | O=C(O)C1OC(Oc2ccc(C=Cc3cc(O)cc(O)c3)cc2)C(O)C(O)C1O [trans-resveratol 4'-O-beta-D-glucuronide] | –

More lines, now with the values behind:

Compound | remaining at 1032 h [1] [%] | Residual amount (%) ([1]; citric acid buffer, 1032 h, pH 8) | activity at 5 ppm [2] [%]
COc1cc(/C=C/c2cc(O)cc(O)c2)ccc1O [(E)-3,4',5-trihydroxy-3'-methoxystilbene] | 46 | – | –
Oc1cc(O)cc(/C=C/c2ccc(O)c(O)c2)c1 [Piceatannol] | 26 | – | –
COc1cc(/C=C/c2ccc(O)cc2)cc(OC)c1 [Pterostilbene, trans-1-(3,5-Diemthoxyphenyl)-2-(4-hydroxyphenyl)ethylene] | 99 | – | 420
